According to the NIST ThermoML archive (doi:10.1021/je800609u):
± gives the expanded uncertainty stated by the source.

What was measured:
[1] = osmotic coefficient (dimensionless); mn = molality of the nth substance listed, in mol/kg; conditions: Liquid, vapor pressure osmometery method
[2] = refractive index (Na D-line) (dimensionless); mn = molality of the nth substance listed, in mol/kg; conditions: 101 kPa, Liquid

CCCCn1cc[n+](C)c1.[I-] [1-butyl-3-methylimidazolium iodide] + O
Conditions | osmotic coefficient, 298.15 K | osmotic coefficient, 308.15 K | osmotic coefficient, 318.15 K | osmotic coefficient, 328.15 K | refractive index, 298.15 K | refractive index, 308.15 K | refractive index, 318.15 K | refractive index, 328.15 K
[1], m1 = 0.0133 | 0.833 ± 0.013 | 0.856 ± 0.013 | 0.899 ± 0.013 | 0.91 ± 0.012 | – | – | – | –
[1], m1 = 0.0293 | 0.821 ± 0.014 | 0.843 ± 0.013 | 0.888 ± 0.013 | 0.889 ± 0.013 | – | – | – | –
[1], m1 = 0.0442 | 0.792 ± 0.014 | 0.821 ± 0.014 | 0.88 ± 0.013 | 0.885 ± 0.013 | – | – | – | –
[1], m1 = 0.0505 | 0.784 ± 0.014 | 0.814 ± 0.014 | 0.869 ± 0.013 | 0.878 ± 0.013 | – | – | – | –
[1], m1 = 0.0786 | 0.766 ± 0.015 | 0.788 ± 0.014 | 0.845 ± 0.013 | 0.861 ± 0.013 | – | – | – | –
[1], m1 = 0.0995 | 0.761 ± 0.015 | 0.78 ± 0.014 | 0.819 ± 0.014 | 0.833 ± 0.013 | – | – | – | –
[1], m1 = 0.1307 | 0.751 ± 0.015 | 0.765 ± 0.015 | 0.782 ± 0.014 | 0.807 ± 0.014 | – | – | – | –
[1], m1 = 0.1782 | 0.711 ± 0.016 | 0.734 ± 0.015 | 0.758 ± 0.015 | 0.778 ± 0.014 | – | – | – | –
[1], m1 = 0.216 | 0.697 ± 0.016 | 0.714 ± 0.016 | 0.74 ± 0.015 | 0.768 ± 0.015 | – | – | – | –
[1], m1 = 0.3257 | 0.644 ± 0.017 | 0.662 ± 0.017 | 0.706 ± 0.016 | 0.715 ± 0.016 | – | – | – | –
[1], m1 = 0.4065 | 0.613 ± 0.018 | 0.645 ± 0.017 | 0.682 ± 0.016 | 0.69 ± 0.016 | – | – | – | –
[1], m1 = 0.5184 | 0.596 ± 0.019 | 0.626 ± 0.018 | 0.644 ± 0.017 | 0.662 ± 0.017 | – | – | – | –
[1], m1 = 0.6452 | 0.564 ± 0.02 | 0.581 ± 0.019 | 0.61 ± 0.018 | 0.619 ± 0.018 | – | – | – | –
[1], m1 = 0.7509 | 0.554 ± 0.02 | 0.566 ± 0.019 | 0.574 ± 0.019 | 0.586 ± 0.019 | – | – | – | –
[1], m1 = 0.8786 | 0.528 ± 0.021 | 0.553 ± 0.02 | 0.558 ± 0.02 | 0.569 ± 0.019 | – | – | – | –
[1], m1 = 1.154 | 0.47 ± 0.022 | 0.501 ± 0.021 | 0.521 ± 0.021 | 0.528 ± 0.021 | – | – | – | –
[1], m1 = 1.837 | 0.405 ± 0.024 | 0.413 ± 0.024 | 0.429 ± 0.023 | 0.45 ± 0.023 | – | – | – | –
[1], m1 = 2.589 | 0.362 ± 0.026 | 0.38 ± 0.025 | 0.387 ± 0.025 | 0.408 ± 0.024 | – | – | – | –
[2], m1 = 0.0133 | – | – | – | – | 1.3331 ± 0.0006 | 1.3321 ± 0.0006 | 1.3305 ± 0.0006 | 1.3285 ± 0.0006
[2], m1 = 0.0293 | – | – | – | – | 1.3336 ± 0.0006 | 1.3325 ± 0.0006 | 1.331 ± 0.0006 | 1.3289 ± 0.0006
[2], m1 = 0.0442 | – | – | – | – | 1.3343 ± 0.0006 | 1.333 ± 0.0006 | 1.3316 ± 0.0006 | 1.3293 ± 0.0006
[2], m1 = 0.0505 | – | – | – | – | 1.3346 ± 0.0006 | 1.3334 ± 0.0006 | 1.3317 ± 0.0006 | 1.3298 ± 0.0006
[2], m1 = 0.0786 | – | – | – | – | 1.3356 ± 0.0006 | 1.3344 ± 0.0006 | 1.3328 ± 0.0006 | 1.331 ± 0.0006
[2], m1 = 0.0995 | – | – | – | – | 1.3365 ± 0.0006 | 1.3353 ± 0.0006 | 1.3336 ± 0.0006 | 1.3315 ± 0.0006
[2], m1 = 0.1307 | – | – | – | – | 1.3376 ± 0.0006 | 1.3363 ± 0.0006 | 1.3347 ± 0.0006 | 1.3329 ± 0.0006
[2], m1 = 0.1782 | – | – | – | – | 1.3395 ± 0.0006 | 1.3381 ± 0.0006 | 1.3364 ± 0.0006 | 1.3347 ± 0.0006
[2], m1 = 0.216 | – | – | – | – | 1.341 ± 0.0006 | 1.3397 ± 0.0006 | 1.338 ± 0.0006 | 1.3359 ± 0.0006
[2], m1 = 0.3257 | – | – | – | – | 1.3449 ± 0.0006 | 1.3435 ± 0.0006 | 1.3418 ± 0.0006 | 1.3404 ± 0.0006
[2], m1 = 0.4065 | – | – | – | – | 1.3478 ± 0.0006 | 1.3467 ± 0.0006 | 1.3447 ± 0.0006 | 1.3433 ± 0.0006
[2], m1 = 0.5184 | – | – | – | – | 1.3519 ± 0.0006 | 1.3503 ± 0.0006 | 1.3487 ± 0.0006 | 1.3464 ± 0.0006
[2], m1 = 0.6452 | – | – | – | – | 1.356 ± 0.0006 | 1.3548 ± 0.0006 | 1.3529 ± 0.0006 | 1.3507 ± 0.0006
[2], m1 = 0.7509 | – | – | – | – | 1.3595 ± 0.0006 | 1.358 ± 0.0006 | 1.3561 ± 0.0006 | 1.3541 ± 0.0006
[2], m1 = 0.8786 | – | – | – | – | 1.3635 ± 0.0006 | 1.362 ± 0.0006 | 1.36 ± 0.0006 | 1.3578 ± 0.0006
[2], m1 = 1.154 | – | – | – | – | 1.3714 ± 0.0006 | 1.3701 ± 0.0006 | 1.368 ± 0.0006 | 1.3657 ± 0.0006
[2], m1 = 1.837 | – | – | – | – | 1.3893 ± 0.0006 | 1.3876 ± 0.0006 | 1.3853 ± 0.0006 | 1.3831 ± 0.0006
[2], m1 = 2.589 | – | – | – | – | 1.4054 ± 0.0006 | 1.4035 ± 0.0006 | 1.4012 ± 0.0006 | 1.3986 ± 0.0006
